Measured values reported in patent US12678411B2, “Nanoformulations of pazopanib, compositions comprising the same and methods of treating osteoarthritis” (The United States Government as represented by the …, priority 2021, dated 2026).

Tests used:
[1] = system: mice with knee joint OA (PMM); assay: Mechanical allodynia (von Frey) in surgery-induced (PMM) knee OA mice; assay type: in vivo; conditions: IA 70 μg/kg twice per week, started at inflammatory pain stage
Experimental: Drugs are intraarticularly injected (twice/week) at 4 weeks after surgery (early OA stage). *p<0.05; **p<0.01; ***p<0.001; ****p<0.0001. PMM=partial medial meniscectomy.
2006; 33(2):348-354; and Kroin J S, et al. Gene. 2016. 10; 591(1): 1-5). Next, outcomes between IA injection of ZD6474 (also known as vandetanib, a selective inhibitor of Flk1, 70 μg/kg, injection frequency: twice per week) and pazopanib (an inhibitor of both Flt1 and Flk1, 70 μg/kg, injection frequency: twice per week) were compared. Twice perweek IA injection of these drugs was started at an inflammatory pain stage (within a week post-surgery) and continued for 12 weeks. After 12 weeks, joints were harvested, histopathological analyses performed, and pathological grading quantified by standard Osteoarthritis Research Society International (OARSI) scoring (1: Healthy, 5: Highly pathologic) (K. O. Vasquez and J. D. Peterson. J Pharmacol Exp Ther 2017, 361:87-98).
Nanoparticles of PEG-PCL (5k-b-6.5k) encapsulating pazopanib were prepared by the flash nanoprecipitation method using a multi-inlet vortex mixer (MIVM) (FIG. 13, nano-PAZ(I)). The resulting composition was intraarticularly injected into the knee joint of mice at the inflammatory pain stage (at one week after OA induction by surgery).

mice [2] = conditions: cited from earlier work
mice [3] = assay: Mechanical hyperalgesia after intrathecal injection in mice; assay type: in vivo; conditions: intrathecal (i.t.) injection
Experimental: VEGF-A induces pain hypersensitivity through effects in the peripheral nervous system (PNS) and central nervous system (CNS). IA injection of Flt1 ligand (but not Flk1 ligand) caused mechanical hypersensitivity within 30 min (FIG. 2), showing that Flt1 ligands can directly activate the PNS to induce pain. Additionally, it was reported that animals with chronic OA pain had increased spinal levels of VEGF-A (FIG. 10). […] Given the similar dose (10 ng) and time course of mechanical hyperalgesia following IA injection (FIG. 2) and i.t. injections of VEGF-A (FIG. 11), VEGF signaling appears to be equally able to induce pain hypersensitivity in the PNS and CNS.

Molecule | time after start of drug injection at which reduction in OA pain was seen [1] | mechanical allodynia after IA injection (mice [2]) | pain response (mechanical hyperalgesia) (mice [3])
COc1cc2c(Nc3ccc(Br)cc3F)ncnc2cc1OCC1CCN(C)CC1 [ZD6474, vandetanib] | 5 weeks | – | –
NGF: nerve growth factor, a well-known OA pain mediator | – | acutely increased mechanical allodynia | no pain response
